# Test results published in paper PMC8186431, “Synthesis and biological evaluation of thiazolidinedione derivatives with high ligand efficiency to P. aeruginosa PhzS” (Journal of Enzyme Inhibition and Medicinal Chemistry, 2021).
# Entries after “also recorded” stand apart in the source; their conditions may differ.
# Columns and labels:
# [1] = target: T1, PaPhzS (Pseudomonas aeruginosa, UniProt Q9HWG9); experiment: Compounds' affinity calculation by TSA (fraction of unfolded protein, DSFit software); assay type: binding, P. aeruginosa; details: for BEI (DSFit software): BEI: (pKd/MW)×1000, from DSFit Kd; for Kd: Kd (DSFit software), TSA, fraction of unfolded PaPhzS at 43 °C, PaPhzS 5 µM, ligand 3.12 to 200 µM; for LE (DSFit software): LE: 1.4*pKd/HA, from DSFit Kd
# T1 construct: implied by pET28a and the HisTrap purification; made in house; host or cells: E. coli Rosetta (DE3)
# Method: The effect of ligand’s concentration (ranging from 3.12 to 200 µM) over the PaPhzS Tm (5 µM final concentration) was evaluated using the same parameters described in section (2.2.2). […] The ΔCp value (0.69) required for this calculation was predicted by hydrophobic surface area-based method available on http://www.ibi.vu.nl/programs/bicepwww/. Briefly, the heat capacity (C) was calculated at two temperatures: 25 °C (before PhzS unfolding [T1]) and 50 °C (after PzhS unfolding [T2]) using Equation (2). C = 332.66 ± 18.9 X (273.15 − T) + 52089 ± 1353 (2) [drawing 2] where T stands for temperature in Kelvin. Therefore T1 = 298.15 K, T2 = 323.15 K.
# Bai and co-workers devised an elegant workaround that limitation, which relies on the percentage of unfolded protein at a fixed temperature. […] According to Bai and co-workers (2019) Kd values close to the protein concentration (5 µM) or lower should be taken with scepticism. […] As these Kd values were obtained at a temperature higher than the physiologic one, we decided to employ an orthogonal assay to evaluate the compounds’ affinity. In order to achieve this goal, PaPhzS was labelled with FITC and the effects of different concentration of each inhibitor on the covalently modified PaPhzS was monitored at 25 °C (Figure 5).
# [2] = target: T2, PaPhzS-FITC (Pseudomonas aeruginosa, UniProt Q9HWG9); experiment: Affinity to covalently modified PaPhzS (FITC fluorescence); assay type: binding, P. aeruginosa; details: for BEI (FITC): BEI: (pKd/MW)×1000, from PaPhzS-FITC Kd; for LE (FITC): LE: 1.4*pKd/HA, from PaPhzS-FITC Kd; for affinity to PaPhzS, in words: PaPhzS-FITC assay
# T2 construct: implied by pET28a and the HisTrap purification); FITC (chemical covalent label, not a peptide; made in house; host or cells: E. coli Rosetta (DE3)
# Method: PaPhzS (2 mg/mL) was incubated with fluorescein-5-isothiocyanate (FITC) dye (6 mg/mL) containing 50 mM HEPES (pH 8.0) for 2 h, at 25 °C. Then, the solution was loaded on a Hi-Trap HP desalting column (GE Healthcare), previously equilibrated with 50 mM HEPES buffer (pH 8) and 2 CV of the same buffer were injected. The absorbance of the collected fractions was monitored at 280 nm and 490 nm and those with a molar ratio ranging from 0.3 and 1.0[55] were employed for the Kd calculation experiments, as follows: The fluorescence of PaPhzS-FITC, at 25 °C, using in a real-time thermocycler (AppliedBiosystem7500) equipped with the FAN filter (excitation 498 nm and emission 530 nm wavelengths) for 10 min in the presence of different concentrations of each compound (3.12–100.0 µM). The Raw fluorescence data, recorded within the Applied Biosystems 7500 Software v2.0, was employed for non-linear regression analysis (three parameters) (Equation 1), as available in GraphPad Prism 8.0 software (GraphPadV® Software, San Diego, CA, USA, www.graphpad.com). All experiments were carried out in triplicate using 96-well PCR plate (PCR plates 96 well BioRad®), manually sealed with transparent capping strips (Flatcap strips BioRad®).
# [3] = target: T3, PhzS from P. aeruginosa (PaPhzS) (Pseudomonas aeruginosa, UniProt Q9HWG9); experiment: Thermal shift assay (TSA) screening of thiazolidinedione derivatives; assay type: binding; details: different concentrations (3.12–100.0 µM)
# T3 construct: implied by pET28a and the HisTrap purification; made in house; host or cells: E. coli Rosetta (DE3)
# Method: TSA assays were performed on Applied Biosystems 7500 RT-PCR (Applied Biosystems, Foster City, CA USA), fitted with custom filter sets. All assays were carried out in triplicate on a 96-well PCR plate (PCR plates 96 well BioRad®), manually sealed with transparent capping strips (Flatcap strips BioRad®). The plates were centrifuged for 2 min, 2000 rpm, at 25 °C and then the fluorescence of SYPRO^TM orange (S6650) was monitored (excitation wavelength= 492 nm and emission wavelength= 610 nm), while the plate was heated from 25 to 85 °C, in increments of 1 °C per minute.
# The TSA conditions employed in this work were previously optimised. Briefly, 5 µl of PaPhzS (5 µM final concentration), 1 µl of SYPRO^TM orange (5X), 13 µl of assay buffer (50 mM potassium phosphate, 300 mM NaCl, pH 8), and 1 µl DMSO (5% v/v), as a negative control, or the putative inhibitor (diluted in DMSO) were added to each well. All experiments were carried out in triplicate
# Raw fluorescence data were recorded within the Applied Biosystems 7500 Software v2.0, and then exported to NAMI[52] for Tm calculation by the first-derivative method.
# [4] = target: PhzS from P. aeruginosa; design: method as in PMID 32772556; details: Kd value calculated by microscale thermophoresis; cited from earlier work
# T3 sequence (Q9HWG9 whole entry): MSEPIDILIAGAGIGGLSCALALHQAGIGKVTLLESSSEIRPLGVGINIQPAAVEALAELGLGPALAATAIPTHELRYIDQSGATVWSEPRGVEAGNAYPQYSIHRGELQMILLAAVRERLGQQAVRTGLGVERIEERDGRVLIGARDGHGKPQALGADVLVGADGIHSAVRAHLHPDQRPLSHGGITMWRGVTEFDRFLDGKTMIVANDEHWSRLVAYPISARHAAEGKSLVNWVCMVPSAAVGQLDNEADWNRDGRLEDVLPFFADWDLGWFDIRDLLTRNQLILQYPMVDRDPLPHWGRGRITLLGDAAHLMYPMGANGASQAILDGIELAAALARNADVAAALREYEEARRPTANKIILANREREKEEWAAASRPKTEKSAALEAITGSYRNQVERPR
# T2 sequence (Q9HWG9 whole entry): as above
# T1 sequence (Q9HWG9 whole entry): as above
melting point [°C],Structure (SMILES),BEI (DSFit software) [1],Kd [1] [µM],LE (DSFit software) [1],Kd [2] [µM],"affinity to PaPhzS, in words [2]",concentration-response profile of ΔTm [3],also measured
196 to 197,Cc1ccc(/C=C2\SC(=O)NC2=O)cc1Br,,,,,,,
,O=C1NC(=O)/C(=C/c2cc(Cl)ccc2O)S1 [Compound 16],21.0,4.2,0.47,6.18 ± 0.2,low micromolar ligands,clear concentration-response profile,BEI (FITC) [2]: 20.42; BEI (FITC) ([2]; listed as Mol 16): 20.4; LE (FITC) ([2]; listed as Mol 16): 0.45
,O=C1NC(=O)C(=Cc2cc(Cl)cc(Br)c2O)S1 [Compound 15],13.3,37.2,0.36,166 ± 0.5,low affinity; also recorded: reduced affinity,clear concentration-response profile,BEI (FITC) [2]: 11.4; LE (FITC) [2]: 0.31
201 to 202,O=C1S/C(=C\c2cc(Cl)ccc2O)C(=O)N1Cc1cccc(Cl)c1,,,,,,,
174 to 176,COc1ccc(C(=O)CN2C(=O)S/C(=C\c3ccc(C)cc3)C2=O)cc1,,,,,,,
,COCn1cc(/C=C2\SC(=O)NC2=O)c2ccccc21 [Compound 33],14.9,50,0.30,84.2 ± 0.2,low affinity,clear concentration-response profile,BEI (FITC) [2]: 14.1; LE (FITC) [2]: 0.28
,"O=C1NC(=O)/C(=C\c2ccc(OCc3nc4ccccc4c(=O)n3-c3ccccc3)cc2)S1 [A, (E)-5–(4-((4-oxo-3-phenyl-3,4-dihydroquinazolin-2-yl)methoxy)benzylidene)thiazolidine-2,4-dione, reference compound]",11.0,9.3,0.21,,,,Kd [4]: 18 µM
110 to 111,"O=C1S/C(=C\c2c(Cl)cccc2Cl)C(=O)N1Cc1cccc(Cl)c1 [Compound 3, (Z)-3–(3-chlorobenzyl)-5–(2,6-dichlorobenzylidene)thiazolidine-2,4-dione]",,,,,,,
194 to 195,O=C1NC(=O)/C(=C/c2c(O)ccc3ccccc23)S1,,,,,,,
118 to 119.5,O=C1NC(=O)/C(=C/c2cncc3ccccc23)S1,,,,,,,

Structure (SMILES),melting point [°C],BEI (DSFit software) [1],Kd [1] [µM],LE (DSFit software) [1],Kd [2] [µM],"affinity to PaPhzS, in words [2]",concentration-response profile of ΔTm [3],also measured
"COc1cc(OC)c(OC)cc1/C=C1\SC(=O)NC1=O [Compound 28, (Z-5–(2,4,5-trimethoxybenzylidene)thiazolidine-2,4-dione)]",158 to 160,,,,,,clear concentration-response profile,
"O=C1NC(=O)/C(=C/C=C/c2ccccc2[N+](=O)[O-])S1 [Compound 38, (Z)-5-((E)-3–(2-nitrophenyl)allylidene)thiazolidine-2,4-dione]",119 to 120,,,,,,small variation in ΔTm,
"COc1ccc(/C=C2\SC(=O)NC2=O)c(Br)c1O [Compound 20, (Z) 5–(2-bromo-3-hydroxy-4-methoxybenzylidene)thiazolidine-2,4-dione]",245,15.0,10.5,0.38,3.3 ± 0.3,low micromolar ligands,clear concentration-response profile,BEI (FITC) ([2]; listed as Mol 20): 16.6; LE (FITC) ([2]; listed as Mol 20): 0.42
